The structures appear in SMILES notation. pIC50: −log10 of the molar value.

A word on the inhibition: it is the relative decrease from the control value, in per cent. A low value points to little suppression. Broadly, the pIC50 is the negative decadic logarithm of the IC50, by convention in mol/L. A lower pIC50 goes with a high IC50.

The target of assay [1] is T1, Histone deacetylase 3 (Homo sapiens, UniProt O15379). In words: Inhibition of human KDAC3 at 30 uM using FITC-labeled p53 acetylated peptide as substrate after 60 mins by fluorescence assay relative to control.
Assay [2] deals with T2, Protein deacetylase HDAC6 (Homo sapiens) (UniProt Q9UBN7).
T2 sequence (whole entry): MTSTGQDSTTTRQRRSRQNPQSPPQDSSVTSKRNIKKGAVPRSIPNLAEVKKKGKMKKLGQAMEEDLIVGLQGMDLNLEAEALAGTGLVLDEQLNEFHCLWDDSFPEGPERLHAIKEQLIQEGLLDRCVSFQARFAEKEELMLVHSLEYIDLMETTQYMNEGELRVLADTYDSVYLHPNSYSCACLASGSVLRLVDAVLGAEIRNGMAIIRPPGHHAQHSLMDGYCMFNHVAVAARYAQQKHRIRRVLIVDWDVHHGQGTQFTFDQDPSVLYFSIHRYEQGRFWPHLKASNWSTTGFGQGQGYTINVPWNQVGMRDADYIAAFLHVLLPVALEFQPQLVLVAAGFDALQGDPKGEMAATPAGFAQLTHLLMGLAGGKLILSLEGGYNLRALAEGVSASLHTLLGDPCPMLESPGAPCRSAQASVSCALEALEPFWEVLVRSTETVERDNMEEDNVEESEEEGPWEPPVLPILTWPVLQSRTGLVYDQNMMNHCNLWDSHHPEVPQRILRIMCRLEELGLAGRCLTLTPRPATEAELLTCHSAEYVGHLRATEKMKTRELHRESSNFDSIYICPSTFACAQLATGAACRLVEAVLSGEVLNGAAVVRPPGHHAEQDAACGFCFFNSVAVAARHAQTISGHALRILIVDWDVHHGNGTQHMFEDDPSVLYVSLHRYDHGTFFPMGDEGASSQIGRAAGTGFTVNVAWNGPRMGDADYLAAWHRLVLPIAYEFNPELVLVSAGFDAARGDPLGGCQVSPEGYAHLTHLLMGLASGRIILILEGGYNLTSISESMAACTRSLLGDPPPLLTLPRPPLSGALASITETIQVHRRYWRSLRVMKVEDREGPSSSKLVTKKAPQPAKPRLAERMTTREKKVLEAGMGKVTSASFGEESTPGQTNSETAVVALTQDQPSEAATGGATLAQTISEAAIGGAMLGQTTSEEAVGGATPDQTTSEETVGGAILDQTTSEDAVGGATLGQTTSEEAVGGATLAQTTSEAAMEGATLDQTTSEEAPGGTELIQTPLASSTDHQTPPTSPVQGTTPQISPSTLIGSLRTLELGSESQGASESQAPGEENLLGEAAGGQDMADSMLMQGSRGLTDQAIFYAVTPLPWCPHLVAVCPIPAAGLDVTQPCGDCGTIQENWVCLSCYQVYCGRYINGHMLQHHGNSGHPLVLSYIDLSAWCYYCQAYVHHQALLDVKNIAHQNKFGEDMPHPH
Particulars: at 30 µM.
Description: Inhibition of human KDAC6 at 30 uM using FITC-labeled histone H4 acetylated peptide as substrate after 60 mins by fluorescence assay relative to control

Assay [3] deals with T1, Histone deacetylase 3. In words: Inhibition of human KDAC3 using FITC-labeled p53 acetylated peptide as substrate after 60 mins by fluorescence assay.
Assay [4] addresses T3, Histone deacetylase 8 (Homo sapiens, UniProt Q9BY41).
T3 sequence (Q9BY41 whole entry): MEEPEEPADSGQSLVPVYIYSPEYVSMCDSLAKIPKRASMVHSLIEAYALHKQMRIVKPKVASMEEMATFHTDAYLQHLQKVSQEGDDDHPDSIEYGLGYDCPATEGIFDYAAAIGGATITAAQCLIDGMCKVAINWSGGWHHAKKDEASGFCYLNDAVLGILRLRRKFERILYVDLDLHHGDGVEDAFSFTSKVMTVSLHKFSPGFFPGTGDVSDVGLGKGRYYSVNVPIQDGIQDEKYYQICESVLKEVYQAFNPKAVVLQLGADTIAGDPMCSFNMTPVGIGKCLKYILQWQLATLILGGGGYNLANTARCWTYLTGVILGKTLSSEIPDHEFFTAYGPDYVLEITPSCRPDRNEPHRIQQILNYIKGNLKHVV
Put plainly: Inhibition of human KDAC8 after 60 mins by fluorescence assay.

In assay [5] the target is T4, Histone deacetylase 1 (Homo sapiens, UniProt Q13547). Put plainly: Inhibition of human KDAC1 at 30 uM using substrate A after 60 mins by fluorescence assay relative to control.
Assay [6] has as its target T5, Histone deacetylase 8 (Homo sapiens) (UniProt Q9BY41).
T5 sequence (whole entry): T3 sequence (Q9BY41 whole entry)
Put plainly: Inhibition of human KDAC8 at 30 uM after 60 mins by fluorescence assay relative to control.

Assay [7] has as its target T6, Protein deacetylase HDAC6 (Homo sapiens, UniProt Q9UBN7).
T6 sequence (Q9UBN7 whole entry): T2 sequence (whole entry)
Put plainly: Inhibition of human KDAC6 using FITC-labeled histone H4 acetylated peptide as substrate after 60 mins by fluorescence assay.

Assay [8] deals with T4, Histone deacetylase 1. In words: Inhibition of human KDAC1 using substrate A after 60 mins by fluorescence assay.

T4 sequence (Q13547 whole entry): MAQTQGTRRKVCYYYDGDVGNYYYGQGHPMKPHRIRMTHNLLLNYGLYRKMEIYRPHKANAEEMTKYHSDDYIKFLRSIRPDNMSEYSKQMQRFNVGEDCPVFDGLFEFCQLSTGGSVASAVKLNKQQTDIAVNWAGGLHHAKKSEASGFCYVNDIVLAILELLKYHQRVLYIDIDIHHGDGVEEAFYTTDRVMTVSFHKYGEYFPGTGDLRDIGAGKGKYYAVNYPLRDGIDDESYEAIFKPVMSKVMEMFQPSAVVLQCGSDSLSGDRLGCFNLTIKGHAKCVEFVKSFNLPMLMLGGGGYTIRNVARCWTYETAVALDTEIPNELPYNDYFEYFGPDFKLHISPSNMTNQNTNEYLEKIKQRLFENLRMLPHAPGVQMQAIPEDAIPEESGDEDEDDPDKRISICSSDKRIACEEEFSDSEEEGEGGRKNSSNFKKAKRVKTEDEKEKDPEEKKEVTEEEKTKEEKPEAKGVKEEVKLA
T1 sequence (O15379 whole entry): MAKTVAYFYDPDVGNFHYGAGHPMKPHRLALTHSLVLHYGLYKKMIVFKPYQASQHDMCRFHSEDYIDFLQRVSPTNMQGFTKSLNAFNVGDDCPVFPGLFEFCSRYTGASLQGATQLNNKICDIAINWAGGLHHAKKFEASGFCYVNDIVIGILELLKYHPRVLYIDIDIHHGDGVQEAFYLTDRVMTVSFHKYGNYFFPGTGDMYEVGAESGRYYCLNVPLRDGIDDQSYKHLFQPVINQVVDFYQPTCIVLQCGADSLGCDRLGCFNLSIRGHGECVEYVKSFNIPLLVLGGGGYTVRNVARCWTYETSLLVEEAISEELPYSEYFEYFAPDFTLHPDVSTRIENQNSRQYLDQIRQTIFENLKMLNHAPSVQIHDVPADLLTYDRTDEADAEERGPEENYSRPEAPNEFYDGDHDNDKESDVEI

As for `Cc1c(C)c(S(=O)(=O)NC(=N)NCCC[C@@H]2N=C(c3ccccc3)c3ccccc3N(CCCCC(=O)NO)C2=O)c(C)c2c1OC(C)(C)C2`, the inhibition in assay [1] amounted to 94.6%; in assay [2], 70.2%; in assay [5], 39.1%; in assay [6], 22.6%. Moreover, the pIC50 in assay [3] is 5.37; in assay [4], less than 4.52; in assay [7], 4.79; in assay [8] it was less than 4.52.

On to `COC(=O)CCCCN1C(=O)[C@H]([C@@H](C)OCc2ccccc2)N=C(c2ccccc2)c2ccccc21`, for which the inhibition in assay [1] amounted to 7.91%; in assay [2] it was 0%; in assay [5], 0.64%; in assay [6], 6.88%. Moreover, the pIC50 in assay [3], in assay [4], in assay [7] and in assay [8] was less than 4.52 in each case.

As for `O=C(CCCCN1C(=O)[C@H](Cc2ccc(O)cc2)N=C(c2ccccc2)c2ccccc21)NO`, the inhibition in assay [1] was 86.4%; in assay [2], 78.5%; in assay [5], 42.9%; in assay [6], 14.9%. The pIC50 is 5.28 in assay [3], less than 4.52 in assay [4], 5.07 in assay [7] and less than 4.52 in assay [8].

On to `CC(C)(C)SC[C@H]1N=C(c2ccccc2)c2ccccc2N(CCCCC(=O)NO)C1=O`, for which the inhibition came out at 98.8% in assay [1], 88% in assay [2], 79.9% in assay [5] and 44.6% in assay [6]. Moreover, the pIC50 in assay [3] is 6.12; in assay [4] it was less than 4.52; in assay [7], 5.27; in assay [8], 5.10.

On to `CC(C)(C)OC[C@@H]1N=C(c2ccccc2)c2ccccc2NC1=O`, for which the inhibition was 0.38% in assay [1], 2.44% in assay [2], 1.48% in assay [5] and 0% in assay [6]. The pIC50 in assay [3], in assay [4], in assay [7] and in assay [8] was less than 4.52 in each case.

As to `CC(C)(C)OC[C@@H]1N=C(c2ccccc2)c2ccccc2N(CCCCC(=O)O)C1=O`, the inhibition in assay [1] was 0%; in assay [2], 0%; in assay [5], 3.74%; in assay [6], 5.87%. Besides, the pIC50 in assay [3], in assay [4], in assay [7] and in assay [8] was less than 4.52 throughout.

`COC(=O)CCCCN1C(=O)CN=C(c2ccccc2)c2ccccc21`: the inhibition in assay [1] amounted to 0%; in assay [2], 0%; in assay [5], 0.19%; in assay [6], 2.83%. Also, the pIC50 in assay [3], in assay [4], in assay [7] and in assay [8] was less than 4.52 throughout.

For the compound `COC(=O)CCCCN1C(=O)[C@H](CCCNC(=N)NS(=O)(=O)c2c(C)c(C)c3c(c2C)CC(C)(C)O3)N=C(c2ccccc2)c2ccccc21`, the inhibition is 3.33% in assay [1], 4.8% in assay [5] and 7.3% in assay [6]. Besides, the pIC50 in assay [3], in assay [4] and in assay [8] was less than 4.52 throughout.

As for `COC(=O)CCCCN1C(=O)[C@H](CCC(=O)NC(c2ccccc2)(c2ccccc2)c2ccccc2)N=C(c2ccccc2)c2ccccc21`, the inhibition is 0% in assay [1], 7.24% in assay [5] and 0% in assay [6]. In addition, the pIC50 in assay [3], in assay [4] and in assay [8] was less than 4.52 throughout.

On to `O=C(O)CCCCN1C(=O)[C@H](CC(=O)NC(c2ccccc2)(c2ccccc2)c2ccccc2)N=C(c2ccccc2)c2ccccc21`, for which the inhibition in assay [1] was 7.32%; in assay [5], 8.49%; in assay [6], 11.4%. Also, the pIC50 in assay [3], in assay [4] and in assay [8] was less than 4.52 in each case.

`COC(=O)CCCCN1C(=O)[C@H](CC(=O)NC(c2ccccc2)(c2ccccc2)c2ccccc2)N=C(c2ccccc2)c2ccccc21`: the inhibition in assay [1] amounted to 5.6%; in assay [5] it was 8.7%; in assay [6] it was 3.62%. In addition, the pIC50 in assay [3], in assay [4] and in assay [8] was less than 4.52 each time.

Take `O=C(CCCCN1C(=O)[C@H](CCC(=O)NC(c2ccccc2)(c2ccccc2)c2ccccc2)N=C(c2ccccc2)c2ccccc21)NO`: the inhibition in assay [1] was 99.1%; in assay [5] it was 78.7%; in assay [6], 53.1%. Further, the pIC50 in assay [3] was 6.08; in assay [4] it was 4.63; in assay [8] it was 5.03.

`O=C(CCCCN1C(=O)[C@H](CC(=O)NC(c2ccccc2)(c2ccccc2)c2ccccc2)N=C(c2ccccc2)c2ccccc21)NO`: the inhibition in assay [1] was 89.5%; in assay [5], 43.1%; in assay [6], 43.9%. Further, the pIC50 is 5.37 in assay [3], less than 4.52 in assay [4] and less than 4.52 in assay [8].

As for `O=C(O)CCCCN1C(=O)[C@H](Cc2cncn2C(c2ccccc2)(c2ccccc2)c2ccccc2)N=C(c2ccccc2)c2ccccc21`, the inhibition is 0% in assay [1], 7.49% in assay [5] and 10.4% in assay [6]. Further, the pIC50 in assay [3], in assay [4] and in assay [8] was less than 4.52 each time.

With `O=C(O)CCCCN1C(=O)[C@H](CCC(=O)NC(c2ccccc2)(c2ccccc2)c2ccccc2)N=C(c2ccccc2)c2ccccc21`, the values for the inhibition in assay [1], in assay [5] and in assay [6] were 0%, 3.58% and 11%, respectively. In addition, the pIC50 in assay [4] and in assay [8] was less than 4.52 throughout.

Take `O=C(CCCCN1C(=O)[C@H](CCC(=O)NO)N=C(c2ccccc2)c2ccccc21)NO`: the results for the inhibition in assay [1], in assay [5] and in assay [6] were 92.2%, 62.5% and 74.7%, respectively. Moreover, the values for the pIC50 in assay [3], in assay [4] and in assay [8] were 5.59, 5.07 and 4.82, respectively.

For `Cc1c(C)c(S(=O)(=O)NC(=N)NCCC[C@@H]2N=C(c3ccccc3)c3ccccc3N(CCCCC(=O)O)C2=O)c(C)c2c1OC(C)(C)C2`, the figures for the inhibition in assay [1], in assay [5] and in assay [6] were 3.8%, 4.96% and 10.2%, respectively. The negative logarithm of the IC50 (pIC50) in assay [3], in assay [4] and in assay [8] was less than 4.52 in each case.

For the compound `N[C@H](Cc1ccc(Cl)cc1Cl)C(=O)N1Cc2ccccc2C1`, the pIC50 was 4.70 in assay [3], 5.96 in assay [4], less than 4.52 in assay [7] and 4.56 in assay [8].

Turning to `O=C(O)CC[C@@H]1N=C(c2ccccc2)c2ccccc2N(CCCCC(=O)NO)C1=O`, the inhibition in assay [1] was determined as 79.8%; in assay [5], 48.1%; in assay [6], 29.7%. Further, the values for the pIC50 in assay [3], in assay [4] and in assay [8] were 5.06, less than 4.52 and less than 4.52, respectively.

Regarding `O=C(O)CCCCN1C(=O)[C@H](CCC(=O)O)N=C(c2ccccc2)c2ccccc21`, the figures for the inhibition in assay [1], in assay [5] and in assay [6] were 1.47%, 13.6% and 6.92%, respectively. For the same compound, the pIC50 in assay [3], in assay [4] and in assay [8] was less than 4.52 in each case.
